The structures appear in SMILES notation.

This assay deals with Huh7 psiCHECK-miR122 Renilla luciferase reporter, 48 h. The experiment in a line: miR-122 inhibitors in Huh7 reporter cells, dose response, cell-based, Huh7 psiCHECK-miR122, Renilla luciferase, cherry-pick (AID 652053).
With `Cc1cccc(NS(=O)(=O)c2cc3c4c(c2)C(C)C(=O)N4CCC3)c1` (stereo not drawn), the AC40 was 1.93 µM.

As for `CCOc1ccc(NS(=O)(=O)c2ccc(NC(=S)NC(=O)CC(C)C)cc2)cc1`, the AC40 was 1.68 µM.

In the case of `Cc1ccc(C(C)(C)C)cc1S(=O)(=O)Nc1cccc(S(=O)(=O)NC2=NCCC2)c1`, the AC40 was 5.86 µM.

Turning to `COc1ccc(Br)cc1S(=O)(=O)N1CCN=C1c1ccccc1`, the AC40 was 9.26 µM.

For the compound `C[C@@H]1CN([C@H](C)CO)C(=O)c2cccc(N(C)C)c2O[C@H]1CN(C)C(=O)Nc1ccccc1`, the AC40 was 1.33 µM.

In the case of `COc1ccccc1NS(=O)(=O)c1cc(NC(=O)c2sccc2C)ccc1N1CCCC1`, the AC40 is 1.12 µM.

For `Cc1noc(C)c1S(=O)(=O)N(C)C[C@@H]1Oc2c(NC(=O)C3CCOCC3)cccc2C(=O)N([C@@H](C)CO)C[C@@H]1C`, the AC40 was 4.51 µM.

In the case of `Cc1cc(C)c(S(=O)(=O)NCCCn2ccnc2)cc1C`, the AC40 is 1.45 µM.

Regarding `Cc1ccc(S(=O)(=O)Nc2cccc(-c3cn4ccsc4n3)c2)cc1`, the AC40 was 1.81 µM.

In the case of `CN1C(=O)c2cc(NC(=O)NCc3ccccc3)ccc2OC[C@@H]2O[C@@H](CC(=O)NCC3CCCCC3)CC[C@@H]21`, the AC40 is 3.21 µM.

`COc1ccc(NS(=O)(=O)c2cc(N)ccc2N2CCOCC2)cc1`: the AC40 was 6.74 µM.

Turning to `COc1ccc(NC(=O)Nc2cccc3c2O[C@H](CN(C)Cc2ccc4c(c2)OCO4)[C@@H](C)CN([C@H](C)CO)C3=O)cc1`, the AC40 is 22.8 µM.

As to `CCn1c(=O)c2cc(S(=O)(=O)NC3CCCCC3)ccc2n(CC)c1=O`, the AC40 was 3.31 µM.

As to `CSc1ccc(S(=O)(=O)Nc2ccc(F)cc2)cc1`, the AC40 is 5.15 µM.

With `CCCn1c(NC(=O)c2cccc(C)c2C)nc2ccccc21`, the AC40 was 16.2 µM.

Turning to `COc1ccc(C)cc1S(=O)(=O)Nc1ccc(F)cc1`, the AC40 was 1.04 µM.

For `Cc1ccc(NS(=O)(=O)c2cc(OCC(N)=O)c(C)cc2Cl)cc1C`, the AC40 is 7.14 µM.

As to `COC(=O)c1ccc(C)c(NS(=O)(=O)c2ccc(OC)c(OC)c2)c1`, the AC40 was 21.5 µM.

Turning to `CC(=O)N1CCOc2ccc(S(=O)(=O)NCCc3ccc(Cl)cc3)cc21`, the AC40 is 5.14 µM.

For the compound `COc1cc(NS(=O)(=O)c2ccc3c(c2)C(C)(C)C(=O)N3C)cc(OC)c1`, the AC40 is 2.85 µM.

Take `C[C@H](CO)N1C[C@H](C)[C@@H](CN(C)Cc2ccc(C(F)(F)F)cc2)Oc2c(NC(=O)C3CC3)cccc2C1=O`: the AC40 is 0.387 µM.

In the case of `CN(C)c1ccc(C(=O)c2ccc(N(C)C)c3ccccc23)cc1`, the AC40 was 4.07 µM.

For `O=S1(=O)N=CN(Cc2cccc(F)c2)c2ccccc21`, the AC40 is 3.02 µM.

For the compound `COc1ccc(Cl)cc1S(=O)(=O)NCc1cccnc1`, the AC40 is 14.5 µM.

For `COc1ccc(C)cc1NS(=O)(=O)c1ccc2c(c1)CCN2C(C)=O`, the AC40 was 8.33 µM.

As for `CC12CCC3C(CCC4(O)CC(O)CCC34C=O)C1(O)CCC2C1=CC(=O)OC1` (stereo not drawn), the AC40 is 2.4 µM.

For the compound `COc1ccc(-c2nc3ccccn3c2NC2CCCCC2)cc1SC1CCCCC1`, the AC40 was 7.13 µM.

For the compound `S=C(Nc1ccc(Cl)c(Cl)c1)NC1CCCCC1`, the AC40 is 1.37 µM.

As for `COC(=O)c1c(NC(=O)c2ccc(C)c(S(=O)(=O)Nc3ccccc3C)c2)sc2c1CCCC2`, the AC40 is less than 0.26 µM.

Regarding `O=C(NNS(=O)(=O)c1ccc(Cl)cc1)c1cccs1`, the AC40 was 16.6 µM.

As to `CC(C)C#Cc1ccc2c(c1)O[C@H](CN(C)C(=O)Nc1ccccc1)[C@@H](C)CN([C@@H](C)CO)S2(=O)=O`, the AC40 was 2.08 µM.

For `O=S(=O)(Nc1ccc(N2CCOCC2)cc1)c1cc(Cl)ccc1Cl`, the AC40 was 26.6 µM.

In the case of `C[C@@H]1CN([C@@H](C)CO)C(=O)c2cc(N(C)C)ccc2O[C@H]1CN(C)Cc1ccc(C(=O)Nc2ccccc2N)cc1`, the AC40 is 9.78 µM.

Consider `Cc1cc(C(=O)Nc2cccc3c2O[C@@H](CN(C)Cc2ccc(C(F)(F)F)cc2)[C@H](C)CN([C@H](C)CO)C3=O)n(C)n1`, for which the AC40 is 3.62 µM.

`CCCNC(=O)NNC(=O)c1cc(-c2ccc3c(c2)OCO3)nc2ccccc12`: the AC40 was 2.65 µM.

Turning to `CCOc1ccccc1CN(Cc1ccco1)S(=O)(=O)c1ccc(-n2cnnn2)c(OC)c1`, the AC40 is 4.36 µM.

As for `COc1ccccc1CN1[C@H](CO)[C@@H]2c3ccccc3N(C(=O)c3ccc(F)cc3)C[C@@H]21`, the AC40 was 30 µM.

As to `COCCNC(=O)C[C@@H]1CC[C@H]2[C@H](COc3ccc(NC(=O)Cc4ccccc4)cc3C(=O)N2C)O1`, the AC40 is 1.34 µM.

On to `S=C(Nc1ccccc1Cl)NC1CCCCCC1`, for which the AC40 is 17.2 µM.

For the compound `CCOc1ccc(Br)cc1S(=O)(=O)Nc1ccc(Cl)c(S(=O)(=O)N(CC)c2ccccc2)c1`, the AC40 was 4.18 µM.

For the compound `C[C@H]1CN([C@@H](C)CO)C(=O)c2cccc(NC(=O)C3CCOCC3)c2O[C@@H]1CN(C)Cc1ccc2c(c1)OCO2`, the AC40 is 18.2 µM.

Regarding `C[C@H](CO)N1C[C@H](C)[C@@H](CN(C)CC2CC2)Oc2c(NC(=O)C3CC3)cccc2C1=O`, the AC40 is 22.2 µM.

As to `Cc1cccc(C(=O)Nc2cccc(S(=O)(=O)NCc3ccco3)c2)c1`, the AC40 is 3.29 µM.

Take `O=S(=O)(NC1CCCCC1)c1ccc(-c2csnn2)s1`: the AC40 is 3.8 µM.

As to `Cc1c(C(=O)OC2CCCC2)[nH]c2c1C(=O)CC(c1ccco1)C2` (stereo not drawn), the AC40 is 5.77 µM.

With `C[C@H](CO)N1C[C@H](C)[C@H](CN(C)Cc2ccc(C(=O)Nc3ccccc3N)cc2)Oc2ccc(NS(=O)(=O)c3ccc(Cl)cc3)cc2CC1=O`, the AC40 is 7.89 µM.

With `COc1cc(C(CCN2CCOCC2)c2c(OC)cc(OC)c3c(-c4ccccc4)cc(=O)oc23)cc(OC)c1OC` (stereo not drawn), the AC40 is 1.2 µM.

Regarding `COc1cccc(CNS(=O)(=O)c2cc(-c3cc(C)no3)ccc2C(C)C)c1`, the AC40 is 5.07 µM.

With `CCOc1cc(C)c(S(=O)(=O)NCCCn2ccnc2)cc1C`, the AC40 was 5.88 µM.

In the case of `COc1ccccc1NS(=O)(=O)c1cc(C(=O)NCc2ccco2)ccc1C`, the AC40 was 13.5 µM.

Take `CC(C)c1ccc(NC(=O)Cc2cn(C)c3ccccc23)cc1`: the AC40 is 11.9 µM.

Turning to `N#Cc1ccc(NC(=S)N2CCC3CC2c2cc(-c4ccc5c(c4)OCO5)ccc23)cc1` (stereo not drawn), the AC40 was 0.31 µM.

For `CCOC(=O)c1c(C)[nH]c(C)c1S(=O)(=O)NCCCc1ccco1`, the AC40 is 5.96 µM.

With `COc1ccccc1NC(=S)NCC1CCCCC1`, the AC40 is 8.17 µM.

With `CC(C)n1nc(C(=O)Nc2cccc(S(=O)(=O)NCc3ccco3)c2)c2ccccc2c1=O`, the AC40 is 2.61 µM.

`c1ccc(-n2nnnc2-c2cccc3ccccc23)cc1`: the AC40 is 10.6 µM.

`CCOc1ccc2cc(C3CC(c4ccco4)=NN3S(C)(=O)=O)c(=O)[nH]c2c1` (stereo not drawn): the AC40 is 7.29 µM.

As for `O=C(Nc1ccc(S(=O)(=O)NCCc2ccccc2)cc1)c1ccco1`, the AC40 is 2.02 µM.

As to `C[C@H]1CN([C@@H](C)CO)C(=O)c2cccc(NC(=O)Nc3ccc(C(F)(F)F)cc3)c2O[C@@H]1CN(C)CC1CCCCC1`, the AC40 is 3.47 µM.

As to `Cc1ccc(C2CC(c3cccs3)=NN2S(=O)(=O)c2ccc(C)cc2)cc1` (stereo not drawn), the AC40 was 8.19 µM.

As to `Cc1cccc(NS(=O)(=O)c2ccc(C3CCCCC3)cc2)c1`, the AC40 was 13.2 µM.

As to `COc1ccc(S(=O)(=O)Nc2ccc(S(=O)(=O)N3CCOCC3)cc2)cc1`, the AC40 was 14.7 µM.

For the compound `CCOC(=O)c1c(S(=O)(=O)Nc2cccc(Cl)c2)c(C)n(C)c1C`, the AC40 is 1.08 µM.

Turning to `CCOc1ccccc1N(CC(=O)Nc1cccnc1)S(=O)(=O)c1ccc(C)cc1`, the AC40 is 8.03 µM.

With `C=CCN(CC=C)S(=O)(=O)c1ccc2nc(NC(=O)C(C)C)sc2c1`, the AC40 is 8.29 µM.

Regarding `O=S(=O)(Nc1ccc(Cl)cc1)c1ccc2c(c1)CCO2`, the AC40 is 2.26 µM.

As for `CC(=O)N1CCOc2ccc(S(=O)(=O)Nc3cccc(C)c3)cc21`, the AC40 is 1.64 µM.

Take `Cc1cc(C)cc(NS(=O)(=O)c2ccc(NC(=S)NC(=O)c3ccc(Br)o3)cc2)c1`: the AC40 was 0.769 µM.

With `C[C@H](CO)N1C[C@H](C)[C@@H](CN(C)Cc2ccccc2)Oc2c(NC(=O)C3CC3)cccc2C1=O`, the AC40 was 6.79 µM.

As for `O=C(NCCCn1ccnc1)c1cccc(S(=O)(=O)Nc2ccc(F)cc2)c1`, the AC40 is 3.77 µM.

As for `COc1ccc(NS(=O)(=O)c2cc(NC(=O)c3sccc3C)ccc2N2CCOCC2)cc1`, the AC40 was less than 0.26 µM.

Regarding `COc1ccc(NS(=O)(=O)c2ccc(OC)c(OC)c2)cc1OC`, the AC40 is 5.37 µM.

Regarding `CCOC(=O)C1CCCCN1C(=O)c1cc2ccc(OC)cc2c2cc(OC)c(OC)cc12` (stereo not drawn), the AC40 was 4.65 µM.

With `O=S(=O)(NCC1CCCO1)c1ccc(Oc2ccccc2)cc1` (stereo not drawn), the AC40 is 5.86 µM.

For the compound `COc1ccc(S(=O)(=O)NCc2ccccn2)cc1NC(=O)c1ccccc1C`, the AC40 was 10.2 µM.

With `C[C@H](CO)N1C[C@H](C)[C@@H](CN(C)Cc2ccc3c(c2)OCO3)Oc2c(NC(=O)c3ccncc3)cccc2C1=O`, the AC40 was 13.1 µM.

Regarding `COc1ccc(S(=O)(=O)Nc2ccc3c(c2)CC(=O)N([C@H](C)CO)C[C@H](C)[C@H](CN(C)Cc2ccc(C(=O)Nc4ccccc4N)cc2)O3)cc1`, the AC40 is 10.5 µM.

Regarding `C[C@H]1CN([C@@H](C)CO)C(=O)Cc2cc(N(C)C)ccc2O[C@@H]1CN(C)Cc1ccc(C(=O)Nc2ccccc2N)cc1`, the AC40 is 25.7 µM.

Consider `C[C@H](CO)N1C[C@H](C)[C@H](CN(C)Cc2ccc(C(=O)Nc3ccccc3N)cc2)Oc2ccc(NS(=O)(=O)c3ccccc3)cc2CC1=O`, for which the AC40 is 3.45 µM.

For the compound `CCCCn1nnnc1C(c1cccc(OC)c1OC)N1CCC2(CC1)C(=O)NCN2c1ccccc1` (stereo not drawn), the AC40 was 2.44 µM.

Turning to `Cc1cccc(NS(=O)(=O)c2ccc(-c3cnc(C4CC4)o3)cc2)c1`, the AC40 is 2.13 µM.

Take `O=C(NCCCn1ccnc1)c1cc(-c2ccccc2)on1`: the AC40 was 28.8 µM.

As for `O=C(Nc1nc2ccc(Cl)cc2s1)c1ccco1`, the AC40 is 20.8 µM.

For the compound `Cc1cccc(NS(=O)(=O)c2csc(C(N)=O)c2)c1`, the AC40 was 3.34 µM.

Turning to `O=C(Cc1ccccc1)N1CC[C@@H]2[C@@H](CO)Nc3ccc(-c4cccc(F)c4)cc3[C@@H]21`, the AC40 was 7.15 µM.

On to `CCc1ccc(-c2cc(C)no2)cc1S(=O)(=O)NCc1ccccc1OC`, for which the AC40 was 3.11 µM.

`COc1ccc(C(C)(C)C)cc1S(=O)(=O)NCC1CCCO1` (stereo not drawn): the AC40 is 0.329 µM.

For the compound `CCOc1ccc(S(=O)(=O)Nc2ccc3c(c2)OCO3)c2cccnc12`, the AC40 was less than 0.26 µM.

The record behind these values is PubChem BioAssay AID652053 (Broad Institute, 2013).
